Earlier results as cited in patent US6350444B1, “Gene therapy for pulmonary edema using adenovirus vectors encoding Na,K-ATPase” (Edema Clearance, Inc., priority 1998, dated 2002).

Legend:
rat α1 subunit = rat α1 subunit (Rattus norvegicus, UniProt P06685); conditions: read-out: IC50 of ouabain

Structure (SMILES)	lung liquid clearance (isolated rat lungs)	IC50 (rat α1 subunit) [µM]
N=C(N)NC(=O)c1nc(Cl)c(N)nc1N [amiloride]	decreased	–
C[C@@H]1O[C@@H](O[C@H]2C[C@@H](O)[C@]3(CO)[C@H]4[C@H](O)C[C@]5(C)[C@@H](C6=CC(=O)OC6)CC[C@]5(O)[C@@H]4CC[C@]3(O)C2)[C@H](O)[C@H](O)[C@H]1O [ouabain]	decreased	1000
